For eight compounds, CATDS and IC50 results are on record in paper PMC11062922 (Nature Chemical Biology, 2023).

One assay has as its system MAPK10. Kind of assay: Kinobeads competition binding: MAPK10. Also on record: species or system human. The note with it: target MAPK10.
A further assay concerns the target T1, HCK (Homo sapiens, UniProt P08631).
T1 construct: endogenous in cells
Kind of assay: Kinobeads competition binding: HCK. The note with it: target HCK. An excerpt: Supplement 41589_2023_1459_MOESM4_ESM.xlsx, sheet "CATDS matrix" | column: HCK

A further assay concerns the target T2, DAPK3 (Homo sapiens, UniProt O43293).
T2 construct: endogenous in cells
Nature of the assay: Kinobeads competition binding: DAPK3.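 Further: share of all-target engagement taken by this protein at its own Kdapp concentration.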 The note with it: target DAPK3.

In a further assay the target is T3, PIK3C3 (Homo sapiens, UniProt Q8NEB9).
T3 construct: a mixture of lysates from five cancer cell lines; endogenous in cells
Kind of assay: Kinobeads competition binding: PIK3C3. The note with it: target PIK3C3.

The next assay has as its target T4, CAMKK2 (Homo sapiens, UniProt Q96RR4).
T4 construct: endogenous in cells
Nature of the assay: Kinobeads competition binding: CAMKK2. The note with it: target CAMKK2. An excerpt: Supplement 41589_2023_1459_MOESM4_ESM.xlsx, sheet "CATDS matrix" | column: CAMKK2

The subject of a further assay is FECH. Kind of assay: Kinobeads competition binding: FECH. More on the design: species or system human. The note with it: target FECH.
The test system of another assay is MAP3K3. Nature of the assay: Kinobeads competition binding: MAP3K3. Also on record: species or system human. The note with it: target MAP3K3.
The target of the next assay is T5, EPHB1 (Homo sapiens, UniProt P54762).
T5 construct: endogenous in cells
T5 sequence (P54762 18-984): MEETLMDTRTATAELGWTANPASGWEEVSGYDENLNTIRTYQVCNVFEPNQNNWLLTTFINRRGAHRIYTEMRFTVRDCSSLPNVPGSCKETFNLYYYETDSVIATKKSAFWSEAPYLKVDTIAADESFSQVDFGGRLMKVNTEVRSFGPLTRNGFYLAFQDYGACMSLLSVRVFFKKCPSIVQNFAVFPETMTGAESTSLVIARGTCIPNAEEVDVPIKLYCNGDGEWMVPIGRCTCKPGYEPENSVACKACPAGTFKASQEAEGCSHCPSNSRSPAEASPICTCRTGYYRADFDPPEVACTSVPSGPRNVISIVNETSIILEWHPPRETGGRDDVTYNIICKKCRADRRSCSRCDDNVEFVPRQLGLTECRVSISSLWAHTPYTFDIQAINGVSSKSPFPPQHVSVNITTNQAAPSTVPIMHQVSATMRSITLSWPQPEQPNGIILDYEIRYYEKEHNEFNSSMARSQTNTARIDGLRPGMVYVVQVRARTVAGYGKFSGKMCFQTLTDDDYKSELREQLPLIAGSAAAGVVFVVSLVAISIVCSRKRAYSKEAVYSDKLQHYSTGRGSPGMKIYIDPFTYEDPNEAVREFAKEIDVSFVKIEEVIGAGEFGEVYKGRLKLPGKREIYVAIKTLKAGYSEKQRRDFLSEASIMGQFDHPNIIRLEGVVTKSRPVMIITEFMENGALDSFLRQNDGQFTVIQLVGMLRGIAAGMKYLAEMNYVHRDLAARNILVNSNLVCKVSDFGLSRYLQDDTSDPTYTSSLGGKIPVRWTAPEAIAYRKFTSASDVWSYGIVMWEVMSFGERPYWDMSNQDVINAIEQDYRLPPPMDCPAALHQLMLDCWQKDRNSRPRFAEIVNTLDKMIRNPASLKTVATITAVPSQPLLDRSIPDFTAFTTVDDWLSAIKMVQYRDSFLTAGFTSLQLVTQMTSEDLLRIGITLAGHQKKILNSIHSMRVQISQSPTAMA
Kind of assay: Kinobeads competition binding: EPHB1. The note with it: target EPHB1. An excerpt: Supplement 41589_2023_1459_MOESM4_ESM.xlsx, sheet "CATDS matrix" | column: EPHB1

For another assay, the system named is CDC42BPG. Kind of assay: Kinobeads competition binding: CDC42BPG. Also on record: species or system human. The note with it: target CDC42BPG.
A further assay deals with T6, FGFR1 (Homo sapiens, UniProt P11362).
T6 construct: endogenous in cells
Nature of the assay: Kinobeads competition binding: FGFR1. The note with it: target FGFR1. An excerpt:
Supplement 41589_2023_1459_MOESM4_ESM.xlsx, sheet "CATDS matrix" | column: FGFR1

The subject of the next assay is MAP4K2. Nature of the assay: Kinobeads competition binding: MAP4K2. The note with it: target MAP4K2. More on the design: species or system human.
The subject of another assay is PI4KB. Kind of assay: Kinobeads competition binding: PI4KB.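 Further: selectivity score: engagement of this protein divided by summed engagement of all targets.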 Also on record: species or system human. The note with it: target PI4KB.
In the next assay the test system is DNAJA1. Kind of assay: Kinobeads competition binding: DNAJA1.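 Further: share of total target engagement due to this protein at one drug concentration.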 Also on record: species or system human. The note with it: target DNAJA1.
The next assay has as its system AP1G1. Kind of assay: Kinobeads competition binding: AP1G1. Also on record: species or system human. The note with it: target AP1G1.
A further assay concerns MAP4K3. Nature of the assay: Kinobeads competition binding: MAP4K3. Also on record: species or system human. The note with it: target MAP4K3.
The next assay concerns the target T7, HSP90B1 (Homo sapiens, UniProt P14625).
T7 construct: endogenous in cells
Kind of assay: Kinobeads competition binding: HSP90B1.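 Further: share of total target engagement due to this protein at one drug concentration.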 The note with it: target HSP90B1.

The next assay has as its system LCK. Nature of the assay: Kinobeads competition binding: LCK. Also on record: species or system human. The note with it: target LCK.
Another assay concerns CDK1. Nature of the assay: Kinobeads competition binding: CDK1. Also on record: species or system human. The note with it: target CDK1.
A further assay deals with HSPE1. Nature of the assay: Kinobeads competition binding: HSPE1. Also on record: species or system human. The note with it: target HSPE1.
In a further assay the test system is BRAF. Nature of the assay: Kinobeads competition binding: BRAF. Also on record: species or system human. The note with it: target BRAF.
A further assay deals with MAP3K2. Kind of assay: Kinobeads competition binding: MAP3K2. Also on record: species or system human. The note with it: target MAP3K2.
A further assay has as its system MTHFD1. Kind of assay: Kinobeads competition binding: MTHFD1.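 Further: selectivity score: engagement of this protein divided by summed engagement of all targets.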 More on the design: species or system human. The note with it: target MTHFD1.
In the next assay the target is T8, BMPR1B (Homo sapiens, UniProt O00238).
T8 construct: endogenous in cells
Nature of the assay: Kinobeads competition binding: BMPR1B.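 Further: selectivity score: engagement of this protein divided by summed engagement of all targets.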 The note with it: target BMPR1B.

A further assay has as its target PKN3 (Homo sapiens, UniProt Q6P5Z2). Nature of the assay: NanoBRET in-cell target engagement in HEK293T cells: PKN3.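 Further: Full-length PKN3 with C-terminal NanoLuc expressed in HEK293T cells, serial inhibitor dilutions competing against Kinase Tracer K5 at 500 nM, BRET read after 2 h at 37 °C.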 Format: cell-based. More on the design: full-length PKN3, CSNK2A1 or CSNK2A2 ORF; host or cells: HEK293T. (In BRET a luciferase serves as donor, and the signal depends on an acceptor being close.)
The mark [1] stands for this setting: HEK293T cells, in-cell target engagement, read-out: IC50 PKN3 NanoBRET.
[2] abbreviates: average of replicates, read-out: Average of IC50 values NanoBRET PKN3.
Setting [3] is: biological replicate number 1, read-out: Rep 1 IC50 NanoBRET PKN3.
Where [4] appears, read: biological replicate number 2, read-out: Rep 2 IC50 NanoBRET PKN3.
Where [5] appears, read: biological replicate number 3, read-out: Rep 3 IC50 NanoBRET PKN3.
The mark [6] stands for this setting: biological replicate number 4, read-out: Rep 4 IC50 NanoBRET PKN3.

Read-outs that look alike come from different tables or passages of the source.

T8 sequence (O00238 14-502): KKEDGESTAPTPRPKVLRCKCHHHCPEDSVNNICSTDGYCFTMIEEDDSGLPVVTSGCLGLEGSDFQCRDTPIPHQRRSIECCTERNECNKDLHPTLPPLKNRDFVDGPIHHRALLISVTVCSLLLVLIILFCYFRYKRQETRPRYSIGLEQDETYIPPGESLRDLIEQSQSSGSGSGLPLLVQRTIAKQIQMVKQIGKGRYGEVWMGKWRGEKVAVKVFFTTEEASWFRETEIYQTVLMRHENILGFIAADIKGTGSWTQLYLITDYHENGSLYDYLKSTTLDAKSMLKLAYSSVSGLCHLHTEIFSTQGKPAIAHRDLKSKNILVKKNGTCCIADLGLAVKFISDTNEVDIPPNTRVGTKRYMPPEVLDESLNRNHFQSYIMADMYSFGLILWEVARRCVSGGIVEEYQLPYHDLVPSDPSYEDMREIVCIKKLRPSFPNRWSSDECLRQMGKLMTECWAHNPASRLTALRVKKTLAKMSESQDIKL
T6 sequence (P11362 22-822): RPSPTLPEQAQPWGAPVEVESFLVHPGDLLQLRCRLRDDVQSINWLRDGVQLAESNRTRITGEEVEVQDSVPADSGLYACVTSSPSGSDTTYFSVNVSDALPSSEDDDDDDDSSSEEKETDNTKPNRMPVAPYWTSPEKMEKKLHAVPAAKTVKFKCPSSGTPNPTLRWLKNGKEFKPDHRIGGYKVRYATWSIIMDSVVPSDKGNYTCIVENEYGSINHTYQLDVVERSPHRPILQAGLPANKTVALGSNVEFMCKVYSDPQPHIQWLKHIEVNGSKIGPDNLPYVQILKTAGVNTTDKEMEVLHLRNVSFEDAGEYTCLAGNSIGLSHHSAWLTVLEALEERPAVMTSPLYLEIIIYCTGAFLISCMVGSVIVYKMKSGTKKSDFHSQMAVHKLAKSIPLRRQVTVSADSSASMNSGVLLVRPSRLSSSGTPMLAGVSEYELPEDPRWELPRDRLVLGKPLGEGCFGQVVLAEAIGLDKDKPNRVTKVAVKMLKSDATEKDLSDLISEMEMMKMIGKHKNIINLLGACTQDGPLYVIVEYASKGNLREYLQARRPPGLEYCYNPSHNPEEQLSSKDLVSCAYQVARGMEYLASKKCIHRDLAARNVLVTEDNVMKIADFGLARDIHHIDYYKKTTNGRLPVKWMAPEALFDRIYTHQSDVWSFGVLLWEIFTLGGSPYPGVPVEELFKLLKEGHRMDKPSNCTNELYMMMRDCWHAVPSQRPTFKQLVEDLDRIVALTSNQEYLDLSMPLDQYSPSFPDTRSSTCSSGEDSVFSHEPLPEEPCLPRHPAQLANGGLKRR
T2 sequence (O43293 whole entry): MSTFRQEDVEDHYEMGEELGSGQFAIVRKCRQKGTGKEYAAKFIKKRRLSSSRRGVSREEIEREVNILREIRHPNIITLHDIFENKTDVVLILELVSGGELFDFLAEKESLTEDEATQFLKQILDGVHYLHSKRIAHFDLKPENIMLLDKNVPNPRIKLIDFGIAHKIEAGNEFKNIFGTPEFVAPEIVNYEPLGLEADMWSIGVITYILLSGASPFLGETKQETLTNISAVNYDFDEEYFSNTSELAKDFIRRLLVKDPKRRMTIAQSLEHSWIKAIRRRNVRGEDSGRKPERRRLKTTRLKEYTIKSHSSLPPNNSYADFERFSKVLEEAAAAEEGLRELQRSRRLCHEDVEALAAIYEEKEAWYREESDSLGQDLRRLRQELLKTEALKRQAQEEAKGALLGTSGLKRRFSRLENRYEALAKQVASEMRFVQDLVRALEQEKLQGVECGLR
T1 sequence (P08631 whole entry): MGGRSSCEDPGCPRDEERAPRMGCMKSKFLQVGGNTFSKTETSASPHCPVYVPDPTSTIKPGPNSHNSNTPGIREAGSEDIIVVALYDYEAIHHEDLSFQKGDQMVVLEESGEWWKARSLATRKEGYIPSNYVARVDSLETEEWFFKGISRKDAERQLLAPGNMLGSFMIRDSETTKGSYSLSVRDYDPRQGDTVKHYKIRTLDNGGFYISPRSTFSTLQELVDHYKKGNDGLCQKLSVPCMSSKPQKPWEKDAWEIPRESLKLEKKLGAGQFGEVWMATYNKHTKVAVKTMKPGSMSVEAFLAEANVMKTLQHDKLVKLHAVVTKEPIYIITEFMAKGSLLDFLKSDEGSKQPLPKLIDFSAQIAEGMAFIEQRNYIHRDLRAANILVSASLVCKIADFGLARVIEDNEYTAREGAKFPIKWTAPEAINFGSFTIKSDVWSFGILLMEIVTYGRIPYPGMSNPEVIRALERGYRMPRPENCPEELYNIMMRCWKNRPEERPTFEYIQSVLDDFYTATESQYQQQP
Sequence of PKN3 (Q6P5Z2 whole entry): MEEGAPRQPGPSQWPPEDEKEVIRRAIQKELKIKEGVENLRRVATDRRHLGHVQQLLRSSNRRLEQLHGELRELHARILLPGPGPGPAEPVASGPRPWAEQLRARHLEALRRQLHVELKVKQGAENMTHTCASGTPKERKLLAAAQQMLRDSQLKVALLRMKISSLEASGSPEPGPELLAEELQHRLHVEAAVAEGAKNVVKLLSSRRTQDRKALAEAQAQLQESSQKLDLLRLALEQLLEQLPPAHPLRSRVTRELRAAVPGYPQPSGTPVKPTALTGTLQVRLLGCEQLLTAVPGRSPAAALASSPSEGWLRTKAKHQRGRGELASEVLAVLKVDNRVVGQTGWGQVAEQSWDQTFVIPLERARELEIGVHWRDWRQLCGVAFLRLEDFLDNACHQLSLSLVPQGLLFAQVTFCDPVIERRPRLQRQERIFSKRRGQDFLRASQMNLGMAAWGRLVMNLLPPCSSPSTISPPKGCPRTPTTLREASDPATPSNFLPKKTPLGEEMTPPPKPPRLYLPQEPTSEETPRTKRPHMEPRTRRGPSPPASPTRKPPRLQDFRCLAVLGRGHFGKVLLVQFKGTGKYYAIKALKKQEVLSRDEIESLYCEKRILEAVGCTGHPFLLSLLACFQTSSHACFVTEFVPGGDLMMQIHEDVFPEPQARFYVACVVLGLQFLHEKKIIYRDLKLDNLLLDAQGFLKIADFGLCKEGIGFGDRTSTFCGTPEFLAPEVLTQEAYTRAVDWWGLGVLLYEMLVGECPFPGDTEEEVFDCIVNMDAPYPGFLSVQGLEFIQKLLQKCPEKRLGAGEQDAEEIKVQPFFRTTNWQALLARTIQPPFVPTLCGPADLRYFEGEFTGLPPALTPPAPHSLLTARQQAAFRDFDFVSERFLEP
T7 sequence (P14625 22-803): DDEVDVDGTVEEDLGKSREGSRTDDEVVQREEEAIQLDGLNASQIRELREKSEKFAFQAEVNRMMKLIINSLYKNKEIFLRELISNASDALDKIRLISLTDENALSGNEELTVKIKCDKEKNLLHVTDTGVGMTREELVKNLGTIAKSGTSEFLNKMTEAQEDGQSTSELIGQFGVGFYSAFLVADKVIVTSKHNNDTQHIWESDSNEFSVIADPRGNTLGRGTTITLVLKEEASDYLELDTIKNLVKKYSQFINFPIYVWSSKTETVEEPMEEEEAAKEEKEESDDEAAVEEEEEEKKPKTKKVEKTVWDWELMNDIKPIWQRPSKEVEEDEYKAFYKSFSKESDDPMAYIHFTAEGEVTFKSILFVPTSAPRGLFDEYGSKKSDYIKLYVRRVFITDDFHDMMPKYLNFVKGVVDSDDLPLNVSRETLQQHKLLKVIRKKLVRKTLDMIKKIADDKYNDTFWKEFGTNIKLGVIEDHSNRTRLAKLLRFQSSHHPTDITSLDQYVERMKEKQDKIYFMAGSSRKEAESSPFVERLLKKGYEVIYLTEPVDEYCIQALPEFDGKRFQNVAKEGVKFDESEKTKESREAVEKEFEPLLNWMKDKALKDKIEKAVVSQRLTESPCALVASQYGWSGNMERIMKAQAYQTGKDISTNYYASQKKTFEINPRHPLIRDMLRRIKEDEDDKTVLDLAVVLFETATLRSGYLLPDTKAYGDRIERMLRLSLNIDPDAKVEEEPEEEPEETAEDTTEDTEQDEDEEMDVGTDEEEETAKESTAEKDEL
T3 sequence (Q8NEB9 whole entry): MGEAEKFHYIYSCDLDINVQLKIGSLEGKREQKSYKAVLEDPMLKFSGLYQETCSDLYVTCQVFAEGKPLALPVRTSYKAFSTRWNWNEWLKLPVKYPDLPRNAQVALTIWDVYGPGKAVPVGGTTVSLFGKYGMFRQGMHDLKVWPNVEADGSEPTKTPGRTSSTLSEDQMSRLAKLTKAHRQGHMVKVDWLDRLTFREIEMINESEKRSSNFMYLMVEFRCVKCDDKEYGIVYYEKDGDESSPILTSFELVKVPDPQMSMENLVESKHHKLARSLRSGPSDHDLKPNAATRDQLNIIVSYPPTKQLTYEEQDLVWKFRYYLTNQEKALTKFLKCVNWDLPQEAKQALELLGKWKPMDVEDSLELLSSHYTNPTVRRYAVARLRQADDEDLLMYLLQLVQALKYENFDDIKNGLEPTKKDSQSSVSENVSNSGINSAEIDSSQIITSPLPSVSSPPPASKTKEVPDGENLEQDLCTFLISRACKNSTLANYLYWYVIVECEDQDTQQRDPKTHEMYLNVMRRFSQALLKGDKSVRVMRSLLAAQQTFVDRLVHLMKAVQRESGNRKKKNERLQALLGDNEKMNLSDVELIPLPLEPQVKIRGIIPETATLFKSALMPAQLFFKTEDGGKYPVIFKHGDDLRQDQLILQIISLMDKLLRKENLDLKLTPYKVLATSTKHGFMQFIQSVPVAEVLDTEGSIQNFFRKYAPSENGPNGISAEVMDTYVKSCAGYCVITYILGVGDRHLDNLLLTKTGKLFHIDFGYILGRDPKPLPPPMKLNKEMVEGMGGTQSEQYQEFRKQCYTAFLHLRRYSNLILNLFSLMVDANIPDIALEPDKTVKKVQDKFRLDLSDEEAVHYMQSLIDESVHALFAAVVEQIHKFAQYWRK

Regarding `Nc1ncnc2[nH]c(-c3ccccc3)nc12` [AH5015_KCGS], the CATDS with MAPK10, at HCK, on DAPK3, on PIK3C3, at CAMKK2 and with FECH was 0 in each case. Also, the CATDS in the assay with MAP3K3, on EPHB1, in the assay with CDC42BPG, at FGFR1, in the assay on MAP4K2 and with PI4KB was 0 throughout. The CATDS with DNAJA1, in the assay with AP1G1, in the assay on MAP4K3, at HSP90B1, in the assay with LCK and with CDK1 was 0 each time. Besides, the CATDS with HSPE1, in the assay with BRAF, with MAP3K2, with MTHFD1 and at BMPR1B was 0 in each case.

For the compound `CCn1c(-c2nonc2N)nc2c(C#CC(C)(C)O)nc(OCCNC)cc21` [GSK949675A], the IC50 (as a rule, the concentration that gives 50% inhibition) at PKN3 (setting [1]) came to 136 nM; at PKN3 (setting [2]) it was 669 nM; at PKN3 (setting [3]), 1950 nM; on PKN3 (setting [4]) it was 441 nM; on PKN3 (setting [5]), 149 nM.

For the compound `NCc1ccc(-c2nc(-c3ccncc3)c(-c3ccc(Cl)c(O)c3)[nH]2)cc1` [SB-476429-A], the IC50 was 85 nM on PKN3 (setting [1]); 243 nM at PKN3 (setting [2]); 589 nM on PKN3 (setting [3]); 211 nM on PKN3 (setting [4]); 86.7 nM at PKN3 (setting [5]); 85.4 nM on PKN3 (setting [6]).

With `CCc1cc2c(cc1N1CCC(N3CCOCC3)CC1)C(C)(C)c1[nH]c3cc(C#N)ccc3c1C2=O` [Alectinib], the CATDS in the assay on MAPK10, at HCK, at DAPK3, at PIK3C3, at CAMKK2 and in the assay on FECH was 0 in each case. The CATDS in the assay with MAP3K3, at EPHB1, with CDC42BPG, on FGFR1, in the assay with MAP4K2 and with PI4KB was 0 throughout. Besides, the CATDS with DNAJA1, with AP1G1, in the assay with MAP4K3, on HSP90B1, in the assay with LCK and with CDK1 was 0 throughout. For the same compound, the CATDS in the assay with HSPE1, with BRAF, with MAP3K2, in the assay on MTHFD1 and at BMPR1B was 0 throughout.

As to `N#CC1(c2ccc(NC(=O)c3cccnc3NCc3ccncc3)cc2)CCCC1` [Apatinib], the CATDS in the assay on MAPK10, at HCK, at DAPK3, on PIK3C3, on CAMKK2 and in the assay on FECH was 0 throughout. In addition, the CATDS in the assay on MAP3K3, on EPHB1, with CDC42BPG, on FGFR1, with MAP4K2 and in the assay with PI4KB was 0 in each case. The CATDS with DNAJA1, in the assay on AP1G1, with MAP4K3, at HSP90B1, with LCK and in the assay with CDK1 was 0 each time. In addition, the CATDS in the assay with HSPE1, in the assay on BRAF, with MAP3K2, in the assay with MTHFD1 and at BMPR1B was 0 throughout.

With `CCn1c(-c2nonc2N)nc2c(C#CC(C)(C)O)nc(OCCN)cc21` [GSK902056A], the IC50 on PKN3 (setting [1]) was 79 nM; on PKN3 (setting [2]) it was 99.2 nM; at PKN3 (setting [3]), 234 nM; at PKN3 (setting [4]), 56.5 nM; on PKN3 (setting [5]) it was 27 nM; on PKN3 (setting [6]), 79.2 nM.

With `CCN1CCN(Cc2ccc(Nc3ncc(F)c(-c4cc(F)c5nc(C)n(C(C)C)c5c4)n3)nc2)CC1` [Abemaciclib], the CATDS with MAPK10, at HCK, on DAPK3, at PIK3C3, at CAMKK2 and in the assay on FECH was 0 in each case. Besides, the CATDS in the assay with MAP3K3, at EPHB1, in the assay on CDC42BPG, on FGFR1, in the assay on MAP4K2 and in the assay with PI4KB was 0 in each case. The CATDS in the assay with DNAJA1, with AP1G1, with MAP4K3, at HSP90B1, in the assay with LCK and in the assay with HSPE1 was 0 in each case. For the same compound, the CATDS in the assay with BRAF, in the assay with MAP3K2, in the assay with MTHFD1 and at BMPR1B was 0 each time.

`CN(C)C/C=C/C(=O)Nc1cc2c(Nc3ccc(F)c(Cl)c3)ncnc2cc1O[C@H]1CCOC1` [Afatinib]: the CATDS on HCK, on CAMKK2, in the assay on FECH, on EPHB1, on FGFR1 and with DNAJA1 was 0 throughout. Further, the CATDS in the assay with AP1G1, at HSP90B1, in the assay with HSPE1 and in the assay with MTHFD1 was 0 each time.
